Laboratory results from patent publication US11564928B1, “Cannabinoid receptor type 2 (CB2) modulators and uses thereof” (Teon Therapeutics, Inc., priority 2020, dated 2023).
pIC50: −log10 of the molar value. Like-named read-outs stand apart in the source and are kept apart here.

Experiments:
human CB2 receptor = human CB2 receptor (Homo sapiens (Human), UniProt P34972); assay: CB2 receptor binding assay ([3H]CP-55,940 displacement, HEK-293 membranes)
human recombinant CB1R = human recombinant CB1R (Homo sapiens (Human), UniProt P21554); assay: CB1 receptor binding assay ([3H]CP-55,940 displacement, HEK-293 membranes); conditions: membranes of HEK-293 cells with human recombinant CB1R, [3H]CP-55,940, read-out: CB1 IC50
Chain of human recombinant CB1R (P21554 whole entry): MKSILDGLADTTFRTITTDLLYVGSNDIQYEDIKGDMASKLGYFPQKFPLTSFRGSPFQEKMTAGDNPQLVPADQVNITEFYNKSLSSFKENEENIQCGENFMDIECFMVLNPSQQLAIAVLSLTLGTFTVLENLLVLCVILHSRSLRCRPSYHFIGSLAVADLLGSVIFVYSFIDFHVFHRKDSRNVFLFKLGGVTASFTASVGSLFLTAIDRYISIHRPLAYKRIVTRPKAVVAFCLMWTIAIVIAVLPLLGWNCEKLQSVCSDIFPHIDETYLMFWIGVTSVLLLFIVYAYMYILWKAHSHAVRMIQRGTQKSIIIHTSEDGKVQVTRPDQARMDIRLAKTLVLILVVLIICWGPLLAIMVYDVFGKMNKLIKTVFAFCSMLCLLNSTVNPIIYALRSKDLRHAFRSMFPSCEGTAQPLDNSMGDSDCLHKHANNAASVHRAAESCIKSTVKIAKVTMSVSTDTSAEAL
Method in brief: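 Displacement of [3H]CP-55,940 was measured on human CB1R- or CB2R-transfected HEK-293 membranes after 120 min at 37 °C, in duplicate, with filtration and scintillation counting. For CB2R, incubation used Tris-HCl 50 mM, MgCl2 5 mM, CaCl2 1 mM, BSA 0.2%, pH 7.4. Ki values were derived from variable-slope IC50 fits using Cheng–Prusoff.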

[1] = membranes of HEK-293 cells with human recombinant CB2R, [3H]CP-55,940, class symbols, read-out: CB2 IC50
[2] = membranes of HEK-293 cells with human recombinant CB2R, [3H]CP-55,940, read-out: CB2 IC50

Chain of human CB2 receptor (P34972 whole entry): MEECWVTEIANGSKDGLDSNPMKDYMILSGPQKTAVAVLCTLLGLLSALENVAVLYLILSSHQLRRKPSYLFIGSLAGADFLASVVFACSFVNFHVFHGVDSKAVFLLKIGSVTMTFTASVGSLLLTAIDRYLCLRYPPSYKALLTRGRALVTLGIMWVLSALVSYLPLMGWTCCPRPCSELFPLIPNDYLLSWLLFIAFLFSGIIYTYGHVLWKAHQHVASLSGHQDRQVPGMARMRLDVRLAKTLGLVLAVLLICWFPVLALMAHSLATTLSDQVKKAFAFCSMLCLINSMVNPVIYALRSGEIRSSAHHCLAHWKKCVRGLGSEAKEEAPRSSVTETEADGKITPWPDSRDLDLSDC

Structure (SMILES) | pIC50 (human CB2 receptor; [1]) | pIC50 (human recombinant CB1R; class symbols) | pIC50 (human CB2 receptor) | pIC50 (human CB2 receptor; [2]) | pIC50 (human recombinant CB1R)
O=C(NC12CC(C1)C2)c1c(O)c2cc(-c3ccc(F)cc3)cnc2n(Cc2ccncc2)c1=O [Compound 129, N-(bicyclo[1.1.1]pentan-1-yl)-6-(4-fluorophenyl)-4-hydroxy-2-oxo-1-(pyridin-4-ylmethyl)-1,2-dihydro-1,8-naphthyridine-3-carboxamide] | < 6.00 | < 6.00 | – | – | –
O=C(NC12CC(C1)C2)c1c(O)c2cc(-c3ccc(F)cc3)cnc2n(Cc2cccnc2)c1=O [Compound 130, N-(bicyclo[1.1.1]pentan-1-yl)-6-(4-fluorophenyl)-4-hydroxy-2-oxo-1-(pyridin-3-ylmethyl)-1,2-dihydro-1,8-naphthyridine-3-carboxamide] | < 6.00 | < 6.00 | – | – | –
O=C(NC12CC(C1)C2)c1c(O)c2cc(-c3ccc(F)cc3)cnc2n(Cc2ccc(F)cn2)c1=O [Compound 131, N-(bicyclo[1.1.1]pentan-1-yl)-6-(4-fluorophenyl)-1-((5-fluoropyridin-2-yl)methyl)-4-hydroxy-2-oxo-1,2-dihydro-1,8-naphthyridine-3-carboxamide] | < 6.00 | < 6.00 | – | – | –
CN1CCN(CCn2c(=O)c(C(=O)NC34CC(C3)C4)c(O)c3cc(-c4ccc(F)cc4)cnc32)CC1 [Compound 132, N-(bicyclo[1.1.1]pentan-1-yl)-6-(4-fluorophenyl)-4-hydroxy-1-(2-(4-methylpiperazin-1-yl)ethyl)-2-oxo-1,2-dihydro-1,8-naphthyridine-3-carboxamide] | – | < 6.00 | 6.00 to 7.00 | – | –
O=C(NC12CC(C1)C2)c1c(O)c2cc(-c3ccc(F)cc3)cnc2n(CCN2CCC(F)CC2)c1=O [Compound 133, N-(bicyclo[1.1.1]pentan-1-yl)-6-(4-fluorophenyl)-4-hydroxy-2-oxo-1-(2-(4-fluoropiperidin-1-yl)ethyl)-1,2-dihydro-1,8-naphthyridine-3-carboxamide] | – | < 6.00 | 6.00 to 7.00 | – | –
O=C(NC1CC2(CCC2)C1)c1c(O)c2cccnc2n(Cc2ccc(F)cc2)c1=O [Compound 134, 1-(4-fluorobenzyl)-4-hydroxy-2-oxo-N-(spiro[3.3]heptan-2-yl)-1,2-dihydro-1,8-naphthyridine-3-carboxamide] | – | < 6.00 | 6.00 to 7.00 | – | –
O=C(NC1CC2(CCC2)C1)c1c(O)c2cccnc2n(CCN2CCOCC2)c1=O [Compound 135, 4-hydroxy-2-oxo-1-(2-morpholinoethyl)-N-(spiro[3.3]heptan-2-yl)-1,2-dihydro-1,8-naphthyridine-3-carboxamide] | > 7.00 | < 6.00 | – | – | –
O=C(NC12CC(C1)C2)c1c(O)c2cccnc2n(CCN2CCOCC2)c1=O [Compound 136, N-(bicyclo[1.1.1]pentan-1-yl)-4-hydroxy-1-(2-morpholinoethyl)-2-oxo-1,2-dihydro-1,8-naphthyridine-3-carboxamide] | < 6.00 | < 6.00 | – | – | –
C[C@H]1CC[C@@H](NC(=O)c2c(O)c3cccnc3n(CCN3CCOCC3)c2=O)CC1 [Compound 137, 4-hydroxy-N-((1s, 4s)-4-methylcyclohexyl)-1-(2-morpholinoethyl)-2-oxo-1,2-dihydro-1,8-naphthyridine-3-carboxamide] | – | – | – | 7.82 | < 5.00
O=C(NC1(CO)CCCCC1)c1c(O)c2cccnc2n(CCN2CCOCC2)c1=O [Compound 138, 4-hydroxy-N-[1-(hydroxymethyl)cyclohexyl]-1-(2-morpholinoethyl)-2-oxo-1,8-naphthyridine-3-carboxamide] | – | < 6.00 | 6.00 to 7.00 | – | –
O=C(NC12CC(C1)C2)c1c(O)c2cccnc2n(Cc2ccc(F)cc2)c1=O [Compound 139, N-(1-bicyclo[1.1.1]pentanyl)-1-[(4-fluorophenyl)methyl]-4-hydroxy-2-oxo-1,8-naphthyridine-3-carboxamide] | < 6.00 | < 6.00 | – | – | –
CC(C)(CO)NC(=O)c1c(O)c2cccnc2n(Cc2ccc(F)cc2)c1=O [Compound 140, 1-[(4-fluorophenyl)methyl]-4-hydroxy-N-(2-hydroxy-1,1-dimethyl-ethyl)-2-oxo-1,8-naphthyridine-3-carboxamide] | – | < 6.00 | 6.00 to 7.00 | – | –
CC12CC(NC(=O)c3c(O)c4cccnc4n(Cc4ccc(F)cc4)c3=O)(C1)C2 [Compound 141, 1-[(4-fluorophenyl)methyl]-4-hydroxy-N-(3-methyl-1-bicyclo[1.1.1]pentanyl)-2-oxo-1,8-naphthyridine-3-carboxamide] | – | < 6.00 | 6.00 to 7.00 | – | –
O=C(NC1CC2(CC2)C1)c1c(O)c2cccnc2n(Cc2ccc(F)cc2)c1=O [Compound 142, 1-[(4-fluorophenyl)methyl]-4-hydroxy-2-oxo-N-spiro[2.3]hexan-5-yl-1,8-naphthyridine-3-carboxamide] | – | < 6.00 | 6.00 to 7.00 | – | –
C[C@H]1CC[C@@H](NC(=O)c2c(O)c3cccnc3n(Cc3ccc(F)cc3)c2=O)CC1 [Compound 143, 1-(4-fluorobenzyl)-4-hydroxy-N-((1s, 4s)-4-methylcyclohexyl)-2-oxo-1,2-dihydro-1,8-naphthyridine-3-carboxamide] | – | – | – | 7.47 | 5.47
C[C@H]1CC[C@H](NC(=O)c2c(O)c3cccnc3n(Cc3ccc(F)cc3)c2=O)CC1 [Compound 144, 1-(4-fluorobenzyl)-4-hydroxy-N-((1r, 4r)-4-methylcyclohexyl)-2-oxo-1,2-dihydro-1,8-naphthyridine-3-carboxamide] | – | – | – | 5.82 | < 5.00
O=C(NC1(CO)CCCCC1)c1c(O)c2cccnc2n(Cc2ccc(F)cc2)c1=O [Compound 145, 1-[(4-fluorophenyl)methyl]-4-hydroxy-N-[1-(hydroxymethyl)cyclohexyl]-2-oxo-1,8-naphthyridine-3-carboxamide] | > 7.00 | < 6.00 | – | – | –
O=C(NC12CC(C1)C2)c1c(O)c2nccnc2n(CCN2CCOCC2)c1=O [Compound 146, N-(bicyclo[1.1.1]pentan-1-yl)-8-hydroxy-5-(2-morpholinoethyl)-6-oxo-5,6-dihydropyrido[2,3-b]pyrazine-7-carboxamide] | < 6.00 | < 6.00 | – | – | –
O=C(NC12CC(C1)C2)c1c(O)c2nccnc2n(Cc2ccc(F)cc2)c1=O [Compound 147, N-(bicyclo[1.1.1]pentan-1-yl)-5-(4-fluorobenzyl)-8-hydroxy-6-oxo-5,6-dihydropyrido[2,3-b]pyrazine-7-carboxamide] | < 6.00 | < 6.00 | – | – | –
COc1ccc(-c2cnc3c(c2)c(O)c(C(=O)N[C@H]2CC[C@H](C)CC2)c(=O)n3CCN2CCOCC2)cc1 [Compound 148, 4-hydroxy-6-(4-methoxyphenyl)-N-((1R,4R)-4-methylcyclohexyl)-1-(2-morpholinoethyl)-2-oxo-1,2-dihydro-1,8-naphthyridine-3-carboxamide] | < 6.00 | < 6.00 | – | – | –
COc1ccc(-c2cnc3c(c2)c(O)c(C(=O)N[C@H]2CC[C@@H](C)CC2)c(=O)n3CCN2CCOCC2)cc1 [Compound 149, 4-hydroxy-6-(4-methoxyphenyl)-N-((1s,4S)-4-methylcyclohexyl)-1-(2-morpholinoethyl)-2-oxo-1,2-dihydro-1,8-naphthyridine-3-carboxamide] | > 7.00 | < 6.00 | – | – | –
COc1ccc(-c2cnc3c(c2)c(O)c(C(=O)N[C@H](C)c2ccc(F)cc2)c(=O)n3CCN2CCOCC2)cc1 [Compound 150, (R)—N-(1-(4-fluorophenyl)ethyl)-4-hydroxy-6-(4-methoxyphenyl)-1-(2-morpholinoethyl)-2-oxo-1,2-dihydro-1,8-naphthyridine-3-carboxamide] | – | < 6.00 | 6.00 to 7.00 | – | –
COc1ccc(-c2cnc3c(c2)c(O)c(C(=O)N[C@@H](C)c2ccc(F)cc2)c(=O)n3CCN2CCOCC2)cc1 [Compound 151, (S)—N-(1-(4-fluorophenyl)ethyl)-4-hydroxy-6-(4-methoxyphenyl)-1-(2-morpholinoethyl)-2-oxo-1,2-dihydro-1,8-naphthyridine-3-carboxamide] | < 6.00 | < 6.00 | – | – | –
COc1ccc(-c2cnc3c(c2)c(O)c(C(=O)NC2CCCCC2)c(=O)n3CCN2CCOCC2)cc1 [Compound 152, N-cyclohexyl-4-hydroxy-6-(4-methoxyphenyl)-1-(2-morpholinoethyl)-2-oxo-1,2-dihydro-1,8-naphthyridine-3-carboxamide] | – | < 6.00 | 6.00 to 7.00 | – | –
O=C(NC1CCCCC1)c1c(O)c2cc(-c3ccc(F)cc3)cnc2n(CCN2CCOCC2)c1=O [Compound 153, N-cyclohexyl-6-(4-fluorophenyl)-4-hydroxy-1-(2-morpholinoethyl)-2-oxo-1,2-dihydro-1,8-naphthyridine-3-carboxamide] | > 7.00 | < 6.00 | – | – | –
C[C@H]1CC[C@H](NC(=O)c2c(O)c3cc(-c4ccc(OC(F)F)cc4)cnc3n(CCN3CCOCC3)c2=O)CC1 [Compound 155, 6-(4-(difluoromethoxy)phenyl)-4-hydroxy-N-((1R,4R)-4-methylcyclohexyl)-1-(2-morpholinoethyl)-2-oxo-1,2-dihydro-1,8-naphthyridine-3-carboxamide] | < 6.00 | < 6.00 | – | – | –
C[C@H]1CC[C@@H](NC(=O)c2c(O)c3cc(-c4ccc(OC(F)F)cc4)ccc3n(CCN3CCOCC3)c2=O)CC1 [Compound 158, 6-(4-(difluoromethoxy)phenyl)-4-hydroxy-N-((1s,4S)-4-methylcyclohexyl)-1-(2-morpholinoethyl)-2-oxo-1,2-dihydroquinoline-3-carboxamide] | > 7.00 | < 6.00 | – | – | –
